Source: patent US4060603A, “Histidine derivatives” (Reckitt & Colman Products Limited, priority 1975, dated 1977)

System: reserpine induced hypothermia
Test: reversal of reserpine induced hypothermia test in mice
Format: in vivo

**Q.** C[C@H]1CCN(C(=O)[C@H](Cc2c[nH]cn2)NC(=O)[C@@H]2CCC(=O)N2)[C@@H]1C(N)=O [Example 1, L-Pyroglutamyl-L-histidyl-trans-3-methyl-L-prolineamide] was tested. Which “calorigenic effect in reversal of reserpine induced hypothermia” value (fully reserpinised mice, over 4 hours, P < 0.05, Mann Whitney U test) did it give?
**A.** significant

**Q.** And the “potency relative to TRH (times more potent)” value (mice, doses 1-30 mg/Kg p.o.)?
**A.** 3-4 time
